Source: ChEMBL document CHEMBL5291721, “A preclinical secondary pharmacology resource illuminates target-adverse drug reaction associations of marketed drugs” (Nat Commun, 2023)

How the values were obtained:
Cannabinoid receptor 1 = Cannabinoid receptor 1 (Homo sapiens, UniProt P21554); type: functional, cell-based
[1] = biological target: T1, Alpha-2B adrenergic receptor (Homo sapiens, UniProt P18089)
T1 sequence (P18089 whole entry): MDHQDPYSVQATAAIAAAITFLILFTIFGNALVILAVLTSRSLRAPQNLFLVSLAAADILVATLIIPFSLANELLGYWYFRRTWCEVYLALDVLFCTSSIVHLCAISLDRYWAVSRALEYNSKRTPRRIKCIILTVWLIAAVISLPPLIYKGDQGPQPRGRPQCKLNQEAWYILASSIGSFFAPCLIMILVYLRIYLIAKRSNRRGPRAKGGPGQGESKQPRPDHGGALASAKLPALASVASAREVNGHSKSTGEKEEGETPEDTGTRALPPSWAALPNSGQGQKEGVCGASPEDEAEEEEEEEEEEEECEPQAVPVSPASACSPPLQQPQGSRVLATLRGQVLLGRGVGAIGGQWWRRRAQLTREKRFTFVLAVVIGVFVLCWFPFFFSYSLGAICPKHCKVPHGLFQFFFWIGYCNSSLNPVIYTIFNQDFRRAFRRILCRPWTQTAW

[2] = biological target: T2, Alpha-1A adrenergic receptor (Homo sapiens, UniProt P35348); type: functional, cell-based
T2 sequence (P35348 whole entry): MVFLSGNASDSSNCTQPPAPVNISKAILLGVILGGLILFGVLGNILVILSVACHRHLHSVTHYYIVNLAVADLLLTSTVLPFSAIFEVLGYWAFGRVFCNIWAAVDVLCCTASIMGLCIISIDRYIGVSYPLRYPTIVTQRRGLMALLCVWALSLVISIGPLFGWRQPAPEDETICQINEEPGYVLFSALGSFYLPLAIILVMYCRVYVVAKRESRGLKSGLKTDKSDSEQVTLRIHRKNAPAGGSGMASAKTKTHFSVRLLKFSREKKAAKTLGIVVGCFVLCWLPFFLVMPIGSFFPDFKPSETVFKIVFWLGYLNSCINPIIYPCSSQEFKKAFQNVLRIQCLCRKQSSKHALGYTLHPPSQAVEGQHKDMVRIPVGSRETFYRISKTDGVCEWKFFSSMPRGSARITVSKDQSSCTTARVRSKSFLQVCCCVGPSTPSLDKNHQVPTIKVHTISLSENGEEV

B2 bradykinin receptor = biological target: T3, B2 bradykinin receptor (Homo sapiens, UniProt P30411)
T3 sequence (P30411 whole entry): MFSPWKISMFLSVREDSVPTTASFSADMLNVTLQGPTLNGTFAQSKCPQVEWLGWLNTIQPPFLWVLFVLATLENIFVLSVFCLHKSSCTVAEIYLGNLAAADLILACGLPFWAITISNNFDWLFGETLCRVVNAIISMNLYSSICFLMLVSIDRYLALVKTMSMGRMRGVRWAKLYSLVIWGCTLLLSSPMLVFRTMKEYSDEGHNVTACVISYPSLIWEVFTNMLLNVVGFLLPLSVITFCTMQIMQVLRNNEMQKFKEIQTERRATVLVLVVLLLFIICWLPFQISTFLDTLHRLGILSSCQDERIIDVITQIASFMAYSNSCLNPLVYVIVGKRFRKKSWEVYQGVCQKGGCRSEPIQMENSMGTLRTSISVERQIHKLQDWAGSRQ

[3] = biological target: Kappa-type opioid receptor (Homo sapiens, UniProt P41145)
Vasopressin V2 receptor = Vasopressin V2 receptor (Homo sapiens, UniProt P30518)
[4] = biological target: Beta-2 adrenergic receptor (Homo sapiens, UniProt P07550)
[5] = biological target: T4, Gastrin/cholecystokinin type B receptor (Homo sapiens, UniProt P32239)
T4 sequence (P32239 whole entry): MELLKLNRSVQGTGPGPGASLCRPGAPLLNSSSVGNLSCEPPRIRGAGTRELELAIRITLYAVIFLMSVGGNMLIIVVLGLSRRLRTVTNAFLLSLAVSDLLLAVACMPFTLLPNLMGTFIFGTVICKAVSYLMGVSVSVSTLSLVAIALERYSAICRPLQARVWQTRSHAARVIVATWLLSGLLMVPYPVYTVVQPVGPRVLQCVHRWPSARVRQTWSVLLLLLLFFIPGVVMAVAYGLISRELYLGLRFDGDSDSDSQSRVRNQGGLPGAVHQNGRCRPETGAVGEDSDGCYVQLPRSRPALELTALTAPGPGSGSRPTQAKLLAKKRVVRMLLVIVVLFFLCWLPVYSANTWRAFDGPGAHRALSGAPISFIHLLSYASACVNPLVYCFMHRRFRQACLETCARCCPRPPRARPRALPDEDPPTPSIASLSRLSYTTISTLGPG

Thromboxane A2 receptor = biological target: T5, Thromboxane A2 receptor (Homo sapiens, UniProt P21731); type: functional, cell-based
T5 sequence (P21731 whole entry): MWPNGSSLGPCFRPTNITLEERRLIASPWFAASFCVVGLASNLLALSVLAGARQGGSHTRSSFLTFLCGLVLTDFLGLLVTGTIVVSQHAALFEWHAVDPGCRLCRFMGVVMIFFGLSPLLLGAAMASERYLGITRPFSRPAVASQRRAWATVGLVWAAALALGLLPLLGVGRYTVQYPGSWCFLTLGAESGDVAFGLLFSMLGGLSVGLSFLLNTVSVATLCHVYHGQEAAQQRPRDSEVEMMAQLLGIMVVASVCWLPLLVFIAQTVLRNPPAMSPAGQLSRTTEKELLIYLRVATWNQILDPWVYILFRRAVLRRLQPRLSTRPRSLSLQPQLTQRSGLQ

[6] = biological target: T6, Alpha-2A adrenergic receptor (Homo sapiens, UniProt P08913)
T6 sequence (P08913 whole entry): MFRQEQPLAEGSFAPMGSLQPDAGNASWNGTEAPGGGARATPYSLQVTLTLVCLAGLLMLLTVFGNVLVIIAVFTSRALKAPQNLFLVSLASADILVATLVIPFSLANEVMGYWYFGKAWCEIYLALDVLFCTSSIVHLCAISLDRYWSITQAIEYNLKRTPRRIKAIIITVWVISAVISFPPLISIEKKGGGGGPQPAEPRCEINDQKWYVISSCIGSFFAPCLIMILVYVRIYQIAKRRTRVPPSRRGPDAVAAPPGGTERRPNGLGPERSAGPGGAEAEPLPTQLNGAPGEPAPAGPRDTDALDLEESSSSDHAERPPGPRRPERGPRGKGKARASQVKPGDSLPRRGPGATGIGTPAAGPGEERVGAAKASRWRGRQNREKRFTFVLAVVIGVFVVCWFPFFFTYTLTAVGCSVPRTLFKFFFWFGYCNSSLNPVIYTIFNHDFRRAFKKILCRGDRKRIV
Also: assay procedure not described here.

Sequence of Beta-2 adrenergic receptor (P07550 whole entry): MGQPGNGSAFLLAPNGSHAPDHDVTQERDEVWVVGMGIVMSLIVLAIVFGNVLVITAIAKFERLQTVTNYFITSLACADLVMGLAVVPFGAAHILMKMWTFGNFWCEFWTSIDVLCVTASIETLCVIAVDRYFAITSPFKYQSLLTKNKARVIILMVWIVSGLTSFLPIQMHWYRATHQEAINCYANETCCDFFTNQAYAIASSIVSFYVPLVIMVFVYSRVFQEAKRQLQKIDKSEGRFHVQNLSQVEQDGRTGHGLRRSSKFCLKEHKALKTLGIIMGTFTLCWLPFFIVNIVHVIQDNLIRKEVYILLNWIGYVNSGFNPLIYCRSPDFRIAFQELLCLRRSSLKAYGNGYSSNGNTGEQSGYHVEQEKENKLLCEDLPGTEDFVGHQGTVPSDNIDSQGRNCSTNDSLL
Sequence of Vasopressin V2 receptor (P30518 whole entry): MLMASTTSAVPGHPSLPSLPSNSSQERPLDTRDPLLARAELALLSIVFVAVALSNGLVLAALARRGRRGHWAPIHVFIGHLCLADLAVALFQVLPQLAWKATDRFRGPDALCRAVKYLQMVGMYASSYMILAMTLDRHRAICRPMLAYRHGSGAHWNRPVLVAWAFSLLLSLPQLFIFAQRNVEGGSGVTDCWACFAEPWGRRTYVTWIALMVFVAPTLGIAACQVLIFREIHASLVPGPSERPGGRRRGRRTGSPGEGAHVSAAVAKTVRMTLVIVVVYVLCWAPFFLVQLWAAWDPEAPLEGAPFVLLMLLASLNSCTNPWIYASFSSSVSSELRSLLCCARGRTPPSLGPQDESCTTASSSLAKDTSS
Sequence of Cannabinoid receptor 1 (P21554 whole entry): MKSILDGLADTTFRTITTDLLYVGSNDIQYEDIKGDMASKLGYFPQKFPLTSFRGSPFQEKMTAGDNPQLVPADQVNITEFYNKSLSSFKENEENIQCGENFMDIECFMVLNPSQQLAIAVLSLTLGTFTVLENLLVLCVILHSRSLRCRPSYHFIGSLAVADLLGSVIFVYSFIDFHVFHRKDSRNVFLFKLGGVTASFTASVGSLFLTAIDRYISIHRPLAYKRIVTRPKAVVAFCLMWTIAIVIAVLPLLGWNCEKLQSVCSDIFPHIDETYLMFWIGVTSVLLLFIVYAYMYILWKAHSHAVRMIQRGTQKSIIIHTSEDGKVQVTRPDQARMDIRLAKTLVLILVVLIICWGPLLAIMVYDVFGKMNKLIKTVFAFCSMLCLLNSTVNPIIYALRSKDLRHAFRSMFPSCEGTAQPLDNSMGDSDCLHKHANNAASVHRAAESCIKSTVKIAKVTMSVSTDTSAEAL
Sequence of Kappa-type opioid receptor (P41145 whole entry): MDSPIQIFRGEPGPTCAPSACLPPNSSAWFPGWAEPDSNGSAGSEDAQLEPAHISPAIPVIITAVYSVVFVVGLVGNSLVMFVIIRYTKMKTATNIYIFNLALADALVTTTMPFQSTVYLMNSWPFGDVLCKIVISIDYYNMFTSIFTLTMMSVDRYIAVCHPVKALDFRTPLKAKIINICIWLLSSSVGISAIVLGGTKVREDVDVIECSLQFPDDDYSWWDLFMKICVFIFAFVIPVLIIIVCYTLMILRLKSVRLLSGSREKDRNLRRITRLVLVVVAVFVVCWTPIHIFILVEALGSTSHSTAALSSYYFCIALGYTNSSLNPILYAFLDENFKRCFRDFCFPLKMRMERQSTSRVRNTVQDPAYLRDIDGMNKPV

SMILES | AC50 (Cannabinoid receptor 1) | AC50 [1] | AC50 [2] | AC50 (B2 bradykinin receptor) | AC50 [3] | AC50 (Vasopressin V2 receptor) | AC50 [4] | AC50 [5] | AC50 (Thromboxane A2 receptor) | AC50 [6]
C[C@H]1CNCCc2ccc(Cl)cc21 [LORCASERIN] | > 30 µM | 5.7 µM | > 30 µM |  |  |  |  |  |  | 
Clc1ccc(C(c2ccccc2Cl)C(Cl)Cl)cc1 (stereo not given) [MITOTANE] |  |  |  | > 10 µM | > 10 µM | > 10 µM | > 10 µM |  |  | 
CCCN1C[C@H](CSC)C[C@@H]2c3cccc4[nH]cc(c34)C[C@H]21 [PERGOLIDE] | > 30 µM |  |  | > 30 µM | 12.9 µM | > 30 µM | > 10 µM | > 30 µM |  | 
NS(=O)(=O)Cc1noc2ccccc12 [ZONISAMIDE] |  | > 10 µM |  | > 10 µM | > 10 µM | > 10 µM | > 10 µM |  |  | 
CCOC(=O)[C@H](CCc1ccccc1)N[C@@H](C)C(=O)N1[C@H](C(=O)O)C[C@@H]2CCC[C@@H]21 | > 30 µM |  | > 30 µM | > 30 µM | > 10 µM | > 30 µM | > 10 µM | > 30 µM |  | 
C[N+]1(C)CCC(OC(=O)C(O)(c2ccccc2)C2CCCC2)C1 (stereo not given) [GLYCOPYRRONIUM BROMIDE] |  |  |  | > 30 µM |  | > 30 µM |  | > 30 µM | > 30 µM | 
CN(C)CCC(c1ccc(Cl)cc1)c1ccccn1 (stereo not given) [CHLORPHENIRAMINE] | > 30 µM |  | > 30 µM | > 30 µM | > 10 µM | > 30 µM | > 10 µM | > 30 µM |  | 
c1cnc(N2CCN(Cc3ccc4c(c3)OCO4)CC2)nc1 [PIRIBEDIL] | > 30 µM |  | 23 µM |  |  |  |  |  |  | 
C[C@@H](O)[C@H]1C(=O)N2C(C(=O)O)=C(S[C@@H]3CN[C@H](C(=O)N(C)C)C3)[C@H](C)[C@H]12 [MEROPENEM] | > 300 µM |  | > 300 µM | > 10 µM | > 10 µM | > 10 µM | > 10 µM |  |  | 
CNC(=O)c1ccccc1Sc1ccc2c(/C=C/c3ccccn3)n[nH]c2c1 [AXITINIB] | > 30 µM | > 30 µM | > 30 µM |  |  |  | > 10 µM |  |  | 
C[N+](C)(C)CCO [CHOLINE] |  |  |  |  |  |  |  |  | > 30 µM | > 30 µM
CC1=C(C(=O)O)N2C(=O)[C@@H](NC(=O)[C@H](N)c3ccccc3)[C@H]2SC1 [CEPHALEXIN ANHYDROUS] | > 30 µM |  | > 30 µM | > 30 µM | > 10 µM | > 30 µM | > 10 µM | > 30 µM |  | 
CN(C)CCC=C1c2ccccc2C(C)(C)c2ccccc21 | > 30 µM | 11 µM | 0.63 µM |  |  |  |  |  |  | 
COc1ccc(CC(C)(C)NC[C@H](O)c2cc(O)cc3c2OCC(=O)N3)cc1 [OLODATEROL] | > 30 µM | > 30 µM | 0.055 µM |  |  |  |  |  |  | 
CN(C)/N=N/c1[nH]cnc1C(N)=O [DACARBAZINE] |  |  |  | > 10 µM | > 10 µM | > 10 µM | > 10 µM |  |  | 
c1ccc([C@H]2CN3CCSC3=N2)cc1 [LEVAMISOLE] | > 30 µM |  | > 30 µM |  | > 30 µM |  | > 30 µM |  |  | 
N[C@@H]1[C@H]2CN(c3nc4c(cc3F)c(=O)c(C(=O)O)cn4-c3ccc(F)cc3F)C[C@@H]12 [TROVAFLOXACIN] | > 30 µM |  | > 30 µM |  |  |  |  |  |  | 
CNC1Cc2ccccc2N(C)c2ccccc21 (stereo not given) [METAPRAMINE] | > 30 µM | 29 µM | 3.4 µM |  |  |  |  |  |  | 
CN1C(=O)CCS(=O)(=O)C1c1ccc(Cl)cc1 (stereo not given) [CHLORMEZANONE] |  | > 10 µM |  | > 10 µM | > 10 µM | > 10 µM | > 10 µM |  |  | 
O=P1(NCCCl)OCCCN1CCCl (stereo not given) [IFOSFAMIDE] |  |  |  | > 30 µM | > 30 µM | > 30 µM | > 30 µM | > 30 µM |  | 
Nc1ccn([C@H]2CC[C@@H](CO)O2)c(=O)n1 [ZALCITABINE] | > 30 µM | > 30 µM | > 30 µM | > 10 µM | > 10 µM | > 10 µM | > 10 µM |  |  | 
Cc1nc([N+](=O)[O-])cn1-c1ccc([N+](=O)[O-])cc1 [NITREFAZOLE] | > 30 µM |  | > 30 µM | > 30 µM | > 30 µM | > 30 µM |  | > 30 µM |  | 
C[C@]12CCC(=O)C=C1CC[C@@H]1[C@@H]2[C@@H](O)C[C@@]2(C)[C@H]1CC[C@]2(O)C(=O)CO [HYDROCORTISONE] | > 30 µM |  | > 30 µM | > 30 µM | > 10 µM | > 30 µM | > 10 µM | > 30 µM |  | 
C1CCC(C(CC2CCCCN2)C2CCCCC2)CC1 (stereo not given) [PERHEXILINE] | > 30 µM |  | > 10 µM |  |  |  |  |  |  | 
Cc1ccc(-c2cc(C(F)(F)F)nn2-c2ccc(S(N)(=O)=O)cc2)cc1 [CELECOXIB] | > 30 µM |  |  | > 30 µM | > 10 µM | > 30 µM | > 10 µM | > 10 µM |  | 
CCCSc1ccc2nc(NC(=O)OC)[nH]c2c1 [ALBENDAZOLE] |  |  |  | > 10 µM | > 10 µM | > 10 µM | > 30 µM |  |  | 
CCC(C)n1ncn(-c2ccc(N3CCN(c4ccc(OCC5COC(Cn6cncn6)(c6ccc(Cl)cc6Cl)O5)cc4)CC3)cc2)c1=O (stereo not given) [ITRACONAZOLE] | > 30 µM |  | > 30 µM | > 30 µM | > 30 µM | > 30 µM | > 30 µM | > 30 µM |  | 
